The source of these data is patent US20070032522A1, “Antiviral agents” (priority 2005, published 2007).

The test concerns HCV replicon-containing cells (Huh7/Clone A). Kind of test: HCV Replicon Assay. The note with it: Hepatitis C virus, Huh-7, 48 hours incubation, HCV replicon RNA by RT-qPCR normalized to total RNA, read-out: IC50 of inhibition of HCV replication. Format: cell-based. The text has this:
The HCV replicon assay is a cell-culture system that mimics in vivo HCV replication and provides a system to study HCV replication in vitro. It was created by transfecting cloned viral RNA derived from a consensus HCV genomic sequence into human Huh7 hepatoma cells that are semi-permissive for viral RNA production (Lohmann V., Korner F., Koch J.-O., Herian U., Theilmann L. and Bartenschlager R. (1999). Replication of subgenomic Hepatitis C virus RNAs in a hepatoma cell line. Science 285, 110-113 and Blight K. J., Kolykhalov A. A. and Rice C. M. (2000). Efficient initiation of HCV RNA Replication in cell culture. Science 290, 972-1974). […] Replicon-containing cells autonomously and persistently replicate HCV RNA that can be measured quantitatively by real-time qPCR. Therefore, the replicon system facilitates quantitative assessment of anti-viral activity by monitoring changes in HCV RNA replication in a cell-based assay. […]
Total RNA eluted in 130 μl of RNase-freed H2O was quantitated by the RiboGreen Assay according to the supplier's protocol (Molecular Probe). […] RNA samples in the black microplate were mixed with 95 μl of diluted RiboGreen reagent (1:250 dilution in TE buffer) and sample fluorescence was measured using a fluorescence microplate reader at standard fluorescein wavelengths (excitation ˜480 nm, emission ˜520 nm). […]
For orientation: Replicon systems follow genome replication, usually without infectious particles.

Regarding `O=C(OCc1ccc(Cl)cc1)c1cn(Cc2ccc(Cl)cc2)c2cc(N3CCNCC3)c(F)cc2c1=O` [Compound 1, 1-(4-chlorobenzyl)-6-fluoro-4-oxo-7-piperazin-1-yl-1,4-dihydro-quinoline-3-carboxylic acid 4-chlorobenzyl ester], the half-inhibitory concentration (IC50) (in general, the concentration that inhibits the measured activity by half) was under 5 µM.
